SMILES strings stand for the structures. Where “and” joins values, the source holds several entries; their conditions need not be identical. Identical values can stand only once.

This assay concerns NCI-H929 complex spheroids, viability % test/control. Nature of the assay: Anticancer human tumor NCI-H929 cell line growth inhibition [RAS].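 For all read-outs here: compound exposure lasted seven days before viability was read.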 Particulars: for viability, T/C: stronger effect = lower value. From the text: RAS pathway inhibitors in Combinations in Complex Spheroids
A high-throughput screen of multi-cell type tumor spheroids was designed to identify active combinations of RAS pathway inhibitors and targeted small molecules. Complex spheroids include a stromal component modeled by human endothelial cells (HUVEC) and fibroblasts modeled by human mesenchymal stem cells (MSCs). The concentration ranges selected for each drug and investigational agent were based upon clinically achievable concentrations if the clinical Cmax of the agent was known.
Compounds. The drugs and investigational agents: abemaciclib (NSC768073), cobimetinib (NSC768068), divarasib (GDC6063, NSC841802), docetaxel (NSC628503), GDC-1971 (RLY-1971, NSC841576), gemcitabine (NSC613327), inavolisib (NSC800729), ipatasertib (NSC767898), KB-0742 (NSC834161), MRTX-1133 (NSC836407), osimertinib (NSC779217), RMC-4630 (NSC839698), RMC-6236 (NSC851965), RMC-6291 (NSC852671), Ro-3306 (NSC812927), sapanisertib (NSC764658), SN-38 (NSC673596), staurosporine (NSC755774), SY5609 (NSC837396), and tovorafenib (DAY101, NSC766906), were obtained from the National Cancer Institute (NCI) Developmental Therapeutics Program Chemical Repository. The FDA-approved anticancer drug set is available from the NCI Developmental Therapeutics Program. […] The stock solutions were prepared in dimethyl sulfoxide (DMSO, Sigma-Aldrich, St. Louis, MO, cat. D2650) at 800-fold the tested concentration and stored at -70 degrees C prior to their use. All drugs and investigational agents were tested over a range starting from a high concentration at or near the clinical Cmax and decreasing in half-log increments. If the clinical Cmax for an agent had not been determined, the highest concentration tested was 10 microM.
Cell Culture. All cells were maintained in an incubator at 37 degrees C and 5% CO2 with 95% humidity. The PDC lines were cultured according to standard operating procedures established by the NCI PDMR. All PDCs were thawed and cultured in Matrigel-coated flasks prepared with a working solution of 1X Ham's F-12 nutrient mix, without supplementation (Invitrogen, Waltham, MA, cat. 11765054), 100 U/mL penicillin-streptomycin (Invitrogen, cat. 15140122), and 2.5% Matrigel (Corning Inc., Corning, NY, cat. 354248) for the first three passages. The 362531-283-R-J2-PDC and 782815-120-R-J1-PDC lines were cultured in 6C/Colon 1B media, which includes advanced DMEM/F-12 (Thermo Fisher Scientific, cat. 12634028), 10 mM HEPES (Thermo Fisher Scientific, cat. 15630080), 1X GlutaMAX supplement (Thermo Fisher Scientific, cat. 35050061), 0.1 mg/mL primocin (InvivoGen, San Diego, CA, cat. ant-pm-2), 10% defined fetal bovine serum, heat inactivated (HyClone Laboratories Inc., Logan, UT, cat. SH30070.03HI), 50% L-WRN conditioned media (ATCC, cat. CRL-3276), 1.25 mM N-Acetyl-L-cysteine (Sigma-Aldrich, cat. A9165), 10 mM nicotinamide (Sigma-Aldrich, cat. N0636), 1X B-27 supplement (Thermo Fisher Scientific, cat. 17504044), 1X N-2 supplement (Thermo Fisher Scientific, cat. 17502048), 50 ng/mL human EGF (Thermo Fisher Scientific, cat. PHG0311), and 10 microM Y-27632 dihydrochloride (Tocris Bioscience, cat. 1254). The K12877-001-R-J1-PDC line was cultured in 6I media, which includes all 6C/Colon 1B media plus 10 ng/mL human FGF-10 (PeproTech, cat. 100-26), 1 ng/mL human FGF-2 (PeproTech, cat. 100-18B), 1 µM prostaglandin E2 (Tocris Bioscience, cat. 2296), […] hydrocortisone (Sigma-Aldrich, cat. H4001), and […] bovine insulin (Sigma-Aldrich, cat. I6634). The K86415-001-R-J1-PDC line was cultured in 6D media, which includes all 6C/Colon 1B media components minus the L-WRN conditioned media. The 485176-168-R4-J1-PDC was cultured in PANC media, which includes all 6C/Colon 1B media plus 100 ng/mL human FGF-10 (PeproTech, cat. 100-26), 500 nM SB-431542 (Selleckchem, cat. S1067), and 10 nM gastrin (Tocris Bioscience, cat. 3006). […]

Consider `C=CC(=O)N1CCN(c2nc(OCC3CCCN3C)nc3c(F)c(-c4nc(N)cc(C)c4C(F)(F)F)c(Cl)cc23)C(C)C1` (stereo not drawn), for which the viability, T/C (compound 0.00316 µM) is 102% [middle of 12 runs]; the viability, T/C (compound 0.01 µM, compound 0.0316 µM) was 103%; the viability, T/C (compound 0.01 µM, compound 0.1 µM) is 105%; the viability, T/C (compound 0.01 µM, compound 0.316 µM) is 101%; the viability, T/C (compound 0.01 µM, compound 1 µM) is 106%; the viability, T/C (compound 0.01 µM) was 101% [middle of 13 runs]. The viability, T/C is 94.3% (compound 0.0316 µM, compound 0.00316 µM); 101% (compound 0.0316 µM, compound 0.01 µM); 101% (compound 0.0316 µM, compound 0.1 µM); 108% (compound 0.0316 µM, compound 0.316 µM); 109% (compound 0.0316 µM, compound 1 µM); 103% [middle of 13 runs] (compound 0.0316 µM). Also, the viability, T/C is 98.2% (compound 0.1 µM, compound 0.00316 µM); 104% (compound 0.1 µM, compound 0.01 µM); 99.5% (compound 0.1 µM, compound 0.0316 µM); 109% (compound 0.1 µM, compound 0.316 µM); 111% (compound 0.1 µM, compound 1 µM); 100% [middle of 12 runs] (compound 0.1 µM). The viability, T/C is, setting by setting: (compound 0.316 µM, compound 0.00316 µM) 102%; (compound 0.316 µM, compound 0.01 µM) 105%; (compound 0.316 µM, compound 0.0316 µM) 106%; (compound 0.316 µM, compound 0.1 µM) 102%; (compound 0.316 µM, compound 1 µM) 113%; (compound 0.316 µM) 100% [middle of 13 runs]. The viability, T/C runs as follows: (compound 1 µM, compound 0.00316 µM) 107%; (compound 1 µM, compound 0.01 µM) 104%; (compound 1 µM, compound 0.0316 µM) 105%; (compound 1 µM, compound 0.1 µM) 109%; (compound 1 µM, compound 0.316 µM) 110%; (compound 1 µM) 104% [middle of 13 runs]. Further, the concentration for half-maximal inhibition (IC50) is greater than 1000 nM (compound alone, run of 09/09/2024) and greater than 1000 nM (curve of compound).

As to `C=CC(=O)Nc1cc(Nc2nccc(-c3cn(C)c4ccccc34)n2)c(OC)cc1N(C)CCN(C)C`, the viability, T/C (compound 0.00316 µM) is 103% (2×) and 109% and 105%; the viability, T/C (compound 0.01 µM) was 99.4% [middle of 4 runs]; the viability, T/C (compound 0.0316 µM) was 107% [middle of 4 runs]; the viability, T/C (compound 0.1 µM) was 99% [middle of 4 runs]; the viability, T/C (compound 0.316 µM) was 105% [middle of 4 runs]; the viability, T/C (compound 1 µM) is 105% [middle of 4 runs]. Also, the 50% inhibitory concentration (IC50) (curve of compound) is greater than 1000 nM.

For the compound `CC(C)n1nc(-c2ccc3oc(N)nc3c2)c2c(N)ncnc21`, the viability, T/C (compound 0.000316 µM) is 105% [middle of 4 runs]; the viability, T/C (compound 0.001 µM) is 104% (2×) and 99.9% and 103%; the viability, T/C (compound 0.00316 µM) was 110% [middle of 4 runs]; the viability, T/C (compound 0.01 µM) was 99% and 112% (2×) and 109%; the viability, T/C (compound 0.0316 µM) was 52.1% and 119% (2×) and 94.3%; the viability, T/C (compound 0.1 µM) is 9.59% [middle of 4 runs]. Further, the IC50 (curve of compound) was 33.1 nM and 62.7 nM and 55.5 nM.

`CCN1CCN(Cc2ccc(Nc3ncc(F)c(-c4cc(F)c5nc(C)n(C(C)C)c5c4)n3)nc2)CC1`: the viability, T/C runs as follows: (compound 0.00316 µM) 106% [middle of 4 runs]; (compound 0.01 µM) 101% (2×) and 100% and 102%; (compound 0.0316 µM) 108% [middle of 4 runs]; (compound 0.1 µM) 107% (2×) and 98.7% and 108%; (compound 0.316 µM) 117% (2×) and 102% and 115%. Also, the IC50 (curve of compound) is > 1000 nM and 774 nM and 695 nM.

Consider `CCc1c2c(nc3ccc(O)cc13)-c1cc3c(c(=O)n1C2)COC(=O)[C@]3(O)CC`, for which the viability, T/C is 110% and 80.3% and 104% (2×) (compound 0.000949 µM); 15.8% [middle of 4 runs] (compound 0.003 µM); 1.38% [middle of 4 runs] (compound 0.00949 µM); 1.43% [middle of 4 runs] (compound 0.03 µM); 1.87% [middle of 4 runs] (compound 0.0949 µM); 1.15% [middle of 4 runs] (compound 0.3 µM). Where the note is “curve of compound”, the IC50 is 1.97 nM [middle of 4 runs].

In the case of `CCn1c(-c2cc(N3CCN(C)CC3)cnc2C(C)OC)c2c3cc(ccc31)-c1csc(n1)CC(NC(=O)C1CC1C)C(=O)N1CCCC(N1)C(=O)OCC(C)(C)C2` (stereo not drawn), the viability, T/C (compound 0.000949 µM) is 102% [middle of 8 runs]; the viability, T/C (compound 0.003 µM) was 101% [middle of 8 runs]; the viability, T/C (compound 0.00949 µM) was 116% [middle of 8 runs]; the viability, T/C (compound 0.0949 µM) is 5.7% [middle of 8 runs]; the viability, T/C (compound 0.3 µM) was 3.64% [middle of 8 runs]. For the same compound, for the setting “compound alone, run of 08/26/2024”, the IC50 is 31.5 nM [middle of 8 runs].

Turning to `CCn1c(-c2cccnc2C(C)OC)c2c3cc(ccc31)N1CCOC(CC(NC(=O)C(C(C)C)N(C)C(=O)C3(F)CCN(C(=O)C#CC(C)(C)N(C)C)CC3)C(=O)N3CCCC(N3)C(=O)OCC(C)(C)C2)C1` (stereo not drawn), the viability, T/C is 107% [middle of 8 runs] (compound 0.000949 µM); 106% [middle of 8 runs] (compound 0.003 µM); 106% [middle of 8 runs] (compound 0.00949 µM); 104% [middle of 8 runs] (compound 0.03 µM); 99.9% [middle of 8 runs] (compound 0.0949 µM); 98.9% [middle of 8 runs] (compound 0.3 µM). For the setting “compound alone, run of 08/20/2024”, the IC50 was greater than 300 nM.

Take `Nc1ccn(C2OC(CO)C(O)C2(F)F)c(=O)n1` (stereo not drawn): the viability, T/C (compound 0.00316 µM) was 106% [middle of 4 runs]; the viability, T/C (compound 0.0316 µM) was 0.89% (2×) and 1.85% and 1.95%; the viability, T/C (compound 0.1 µM) was 1.62% [middle of 4 runs]; the viability, T/C (compound 0.316 µM) was 1.71% [middle of 4 runs]; the viability, T/C (compound 1 µM) is 1.37% [middle of 4 runs]. The IC50 (curve of compound) is 18.3 nM [middle of 4 runs].

`O=C(c1ccc(F)c(F)c1Nc1ccc(I)cc1F)N1CC(O)([C@@H]2CCCCN2)C1`: the viability, T/C (compound 0.00316 µM) was 105% [middle of 4 runs]; the viability, T/C (compound 0.01 µM) is 95.4% [middle of 4 runs]; the viability, T/C (compound 0.1 µM) was 96.1% [middle of 4 runs]; the viability, T/C (compound 0.316 µM) was 115% [middle of 4 runs]. Moreover, the concentration for half-maximal inhibition (IC50) (curve of compound) is > 1000 nM and 672 nM and 724 nM.

Broadly, the viability, T/C is the ratio of treated to control. In general, IC50 refers to the concentration that inhibits the measured activity by half.
